This is an account of results in PubChem BioAssay AID1259408 (Genetic Toxicology Data Bank (GENE-TOX), 2018).

This data set has as its system GENE-TOX genotoxicity assays, various organisms and cells. In words: GENE-TOX mutagenicity studies. The following applies: for call: Assay Type: In vivo carcinogenicity studies.
[1] abbreviates: Species/Cell Type: Drosophila melanogaster, Assay Type: Sex-linked recessive lethal gene mutation, Assay Code: SRL+, Evaluation Type: Evaluation A (Pre-1980).
Setting [2] is: Species/Cell Type: Neurospora crassa, Assay Type: Aneuploidy, chromosome aberrations, Assay Code: NEN-, Evaluation Type: Evaluation A (Pre-1980).
Where [3] appears, read: Species/Cell Type: Salmonella typhimurium (one or more of the five standard strains: TA98, TA100, TA1535, TA1537, and TA1538), Assay Type: Histidine reverse gene mutation, Ames assay, Assay Code: SAL+, Evaluation Type: Evaluation A (Pre-1980).
Setting [4] is: Species/Cell Type: Syrian hamster embryo (SHE) cells, Assay Type: Cell transformation, clonal assay, Assay Code: CTC+, Evaluation Type: Evaluation A (Pre-1980).
Setting [5] is: Species/Cell Type: Human lymphocytes, Assay Type: Sister-chromatid exchange (SCE) in vitro, Assay Code: SCL+D, Dose Response: With dose response, Evaluation Type: Evaluation B (Post-1980).
Where [6] appears, read: Species/Cell Type: Human, Assay Type: Sister-chromatid exchange (SCE) in vitro, Assay Code: SC1+D, Dose Response: With dose response, Evaluation Type: Evaluation B (Post-1980).
[7] abbreviates: Species/Cell Type: Drosophila melanogaster, Sex: Male, Assay Type: Heritable translocation test, chromosome aberrations, Assay Code: DHT+, Evaluation Type: Evaluation A (Pre-1980).
The mark [8] stands for this setting: Species/Cell Type: Nonhuman, Assay Type: Sister-chromatid exchange (SCE) in vitro, Assay Code: SC2+D, Dose Response: With dose response, Evaluation Type: Evaluation B (Post-1980).

Calls of active or inactive are those of the source. No rule for the calls is given here.

`Nc1ccc([N+](=O)[O-])cc1N`: the mutagenic call under setting [1] is “active; positive”; the mutagenic call (Species/Cell Type: Fischer rat embryo (RLV/1706) cells, Assay Type: Cell transformation, viral enhanced, Assay Code: CTR+, Evaluation Type: Evaluation A (Pre-1980)) was “active; positive”; the mutagenic call (Species/Cell Type: Human diploid fibroblasts, Assay Type: Unscheduled DNA synthesis (UDS) in vitro, DNA effects, Assay Code: UDHT, Evaluation Type: Evaluation A (Pre-1980)) is listed as “no conclusion”; the mutagenic call (Species/Cell Type: Mammalian polychromatic erythrocytes, Assay Type: Micronucleus test, chromosome aberrations, Assay Code: MNTT, Evaluation Type: Evaluation A (Pre-1980)) is listed as “no conclusion”; the mutagenic call (Species/Cell Type: Mouse (C3H/10T1/2) cells, Assay Type: Cell transformation, Assay Code: CTH+, Evaluation Type: Evaluation A (Pre-1980)) is “active; positive”; the mutagenic call (Species/Cell Type: Mouse, Sex: Male, Assay Type: Sperm morphology, Assay Code: SPI-, Evaluation Type: Evaluation A (Pre-1980)) is “inactive; negative”. The mutagenic call runs as follows: under setting [2], “inactive; negative”; (Species/Cell Type: Nonhuman, Assay Type: Chromosome aberrations in vitro, Assay Code: CY&+D, Dose Response: With dose response, Evaluation Type: Evaluation A (Pre-1980)) “active; positive”; (Species/Cell Type: Nonhuman, Assay Type: Sister-chromatid exchange (SCE) in vitro, Assay Code: SC2+D, Dose Response: With dose response, Evaluation Type: Evaluation A (Pre-1980)) “active; positive”; (Species/Cell Type: Nonhuman, Sex: Male, Assay Type: Sister-chromatid exchange (SCE) in vivo, Assay Code: SC3TM, Evaluation Type: Evaluation B (Post-1980)) “no conclusion”; (Species/Cell Type: Rodents, Sex: Male, Assay Type: Dominant lethal test, Assay Code: DLTT, Evaluation Type: Evaluation A (Pre-1980)) “no conclusion”; (Species/Cell Type: Saccharomyces cerevisiae, Assay Type: Reverse gene mutation, Assay Code: YER-, Evaluation Type: Evaluation A (Pre-1980)) “inactive; negative”. Moreover, the mutagenic call runs as follows: under setting [3], “active; positive”; (Species/Cell Type: Salmonella typhimurium, Assay Type: Forward and reverse gene mutation, body fluid assay, Assay Code: BFU+, Evaluation Type: Evaluation A (Pre-1980)) “active; positive”; under setting [4], “active; positive”. In addition, the call (Species/Cell Type: Nonhuman, Assay Code: CCG-, Evaluation Type: Evaluation A (Pre-1980)) is “inactive; negative”.
For the molecule `CNC(=O)c1c(I)c(NC(C)=O)c(I)c(C(=O)O)c1I`, the mutagenic call is “active; positive” under setting [5] and “active; positive” under setting [6].
With `C[C@@H]1C(=O)OCC2=CCN3CC[C@@H](OC(=O)[C@@H](C)[C@@]1(C)O)[C@@H]23`, the mutagenic call is, setting by setting: under setting [1], “active; positive”; under setting [7], “active; positive”.
Take `COC(=O)Nc1ncc(-c2ccc(Br)cc2)[nH]1`: for the setting “Species/Cell Type: Salmonella typhimurium, Assay Type: Forward and reverse gene mutation, host-mediated assay, Assay Code: HMAT, Evaluation Type: Evaluation A (Pre-1980)”, the mutagenic call is recorded as “no conclusion”.
As to `OCc1c2c(cc3ccccc13)-c1ccccc1C1OC21` (centres undefined), the mutagenic call (Species/Cell Type: Mouse prostate cells, Assay Type: Cell transformation, Assay Code: CTM+, Evaluation Type: Evaluation A (Pre-1980)) was “active; positive”.
As for `NC(Cc1cccc(F)c1)C(=O)O` (centres undefined), under setting [2], the mutagenic call is “inactive; negative”.
As for `C1CN1c1nc(N2CC2)nc(N2CC2)n1`, the mutagenic call was “active; positive” (Species/Cell Type: Allium cepa, Assay Type: Chromosome aberrations, Assay Code: ALC+, Evaluation Type: Evaluation A (Pre-1980)); “inactive; negative” (Species/Cell Type: Arabidopsis species, Assay Type: Gene mutation, Assay Code: ARM-, Evaluation Type: Evaluation A (Pre-1980)); “active; positive” under setting [1]; “active; positive” under setting [7]; “active; positive” (Species/Cell Type: F1 mouse, Sex: Male, Assay Type: Sperm morphology, Assay Code: SPF+, Evaluation Type: Evaluation A (Pre-1980)); “active; positive” (Species/Cell Type: Human lymphocytes, Assay Type: Sister-chromatid exchange (SCE) in vitro, Assay Code: SCL+, Evaluation Type: Evaluation B (Post-1980)). In addition, the mutagenic call was “active; positive” (Species/Cell Type: Human, Assay Type: Sister-chromatid exchange (SCE) in vitro, Assay Code: SC1+, Evaluation Type: Evaluation B (Post-1980)); “active; positive” (Species/Cell Type: Mammalian germ cells, Sex: Male, Assay Type: Chromosome aberrations in vivo, Assay Code: CY9+, Evaluation Type: Evaluation A (Pre-1980)); “active; positive” (Species/Cell Type: Mammalian oocytes or early embryo, Assay Type: Chromosome aberrations in vivo, Assay Code: CYO+, Evaluation Type: Evaluation A (Pre-1980)); “active; positive” (Species/Cell Type: Mammalian polychromatic erythrocytes, Assay Type: Micronucleus test, chromosome aberrations, Assay Code: MNT+, Evaluation Type: Evaluation A (Pre-1980)); “active; positive” (Species/Cell Type: Mouse germ cells, Sex: Male, Assay Type: Unscheduled DNA synthesis (UDS) in vivo, DNA effects, Assay Code: UDT+, Evaluation Type: Evaluation A (Pre-1980)); “no conclusion” (Species/Cell Type: Mouse, Sex: Female, Assay Type: Spot test, gene mutation, Assay Code: MSTT, Evaluation Type: Evaluation A (Pre-1980)). Further, the mutagenic call is, setting by setting: (Species/Cell Type: Mouse, Sex: Male, Assay Type: Heritable translocation test, chromosome aberrations, Assay Code: HTT+, Evaluation Type: Evaluation A (Pre-1980)) “active; positive”; (Species/Cell Type: Mouse, Sex: Male, Assay Type: Specific locus test, gene mutation, Assay Code: SLT+, Evaluation Type: Evaluation A (Pre-1980)) “active; positive”; (Species/Cell Type: Mouse, Sex: Male, Assay Type: Sperm morphology, Assay Code: SPI+, Evaluation Type: Evaluation A (Pre-1980)) “active; positive”; (Species/Cell Type: Nonhuman bone marrow, Assay Type: Chromosome aberrations, in vivo, Assay Code: CY#+, Evaluation Type: Evaluation A (Pre-1980)) “active; positive”; under setting [8], “active; positive”; (Species/Cell Type: Nonhuman, Assay Type: Sister-chromatid exchange (SCE) in vivo, Assay Code: SC3+D, Dose Response: With dose response, Evaluation Type: Evaluation B (Post-1980)) “active; positive”. Further, the mutagenic call (Species/Cell Type: Rabbit, Sex: Male, Assay Type: Sperm morphology, Assay Code: SPRT, Evaluation Type: Evaluation A (Pre-1980)) is “no conclusion”; the mutagenic call (Species/Cell Type: Rodents, Sex: Male, Assay Type: Dominant lethal test, Assay Code: DLT+D, Dose Response: With dose response, Evaluation Type: Evaluation A (Pre-1980)) was “active; positive”; the mutagenic call (Species/Cell Type: Saccharomyces cerevisiae, Assay Type: Forward and reverse gene mutation, mitotic recombination and gene conversion, host-mediated assay, Assay Code: HME+, Evaluation Type: Evaluation A (Pre-1980)) was “active; positive”; the mutagenic call (Species/Cell Type: Saccharomyces cerevisiae, Assay Type: Forward gene mutation, Assay Code: YEF+, Evaluation Type: Evaluation A (Pre-1980)) was “active; positive”; the mutagenic call (Species/Cell Type: Saccharomyces cerevisiae, Assay Type: Mitotic recombination or gene conversion, Assay Code: YEC+, Evaluation Type: Evaluation A (Pre-1980)) is “active; positive”; the mutagenic call (Species/Cell Type: Saccharomyces cerevisiae, Assay Type: Mitotic recombination or gene conversion, Assay Code: YEH+, Evaluation Type: Evaluation A (Pre-1980)) is “active; positive”. Also, the mutagenic call runs as follows: (Species/Cell Type: Saccharomyces cerevisiae, Assay Type: Reverse gene mutation, Assay Code: YER+, Evaluation Type: Evaluation A (Pre-1980)) “active; positive”; (Species/Cell Type: Vicia faba, Assay Type: Chromosome aberrations, Assay Code: VIC+, Evaluation Type: Evaluation A (Pre-1980)) “active; positive”. In addition, the call (Species/Cell Type: Nonhuman, Assay Code: CCG+L, Evaluation Type: Evaluation A (Pre-1980)) is “active; positive”.
For `Nc1cccc2c1C(=O)c1c(NCCNCCO)ccc(NCCNCCO)c1C2=O`, under setting [8], the mutagenic call was “active; positive”.
On to `O=C(CCN1CCCC1)c1ccc2c(c1)OCO2`, for which, where the note is “Species/Cell Type: Salmonella typhimurium, Assay Type: Forward and reverse gene mutation, host-mediated assay, Assay Code: HMA-, Evaluation Type: Evaluation A (Pre-1980)”, the mutagenic call is “inactive; negative”.
Regarding `[O]=[Cr](=[O])([OH])[O][Cr](=[O])(=[O])[OH]`, the mutagenic call was “active; positive” (Species/Cell Type: Bacillus subtilis (H17 vs M45), Assay Type: Rec-assay, spot test, DNA effects (bacterial DNA repair), Assay Code: REW+, Evaluation Type: Evaluation A (Pre-1980)); “active; positive” (Species/Cell Type: Chinese hamster ovary (CHO) cells, Assay Type: Forward gene mutation at the HPRT locus, Assay Code: CHO+, Evaluation Type: Evaluation B (Post-1980)); “active; positive” under setting [5]; “active; positive” under setting [6]; “active; positive” (Species/Cell Type: Mammalian polychromatic erythrocytes, Assay Type: Micronucleus test, chromosome aberrations, Assay Code: MNT+, Evaluation Type: Evaluation B (Post-1980)); “active; positive” (Species/Cell Type: Nonhuman, Assay Type: Chromosome aberrations in vitro, Assay Code: CY&+, Evaluation Type: Evaluation A (Pre-1980)). Further, the mutagenic call (Species/Cell Type: Nonhuman, Assay Type: Sister-chromatid exchange (SCE) in vitro, Assay Code: SC2+, Evaluation Type: Evaluation B (Post-1980)) was “active; positive”; the mutagenic call under setting [8] is “active; positive”; the mutagenic call under setting [3] is “active; positive”; the mutagenic call under setting [4] was “active; positive”.
Regarding `Cc1cc(C(=O)NCCc2ccc(S(=O)(=O)NC(=O)NN3CCCCCC3)cc2)no1`, the mutagenic call (Species/Cell Type: Nonhuman, Assay Type: Sister-chromatid exchange (SCE) in vivo, Assay Code: SC3T, Evaluation Type: Evaluation B (Post-1980)) is reported as “no conclusion”.
For the molecule `O=[N+]([O-])c1ccc(N2CC2)c2c1no[n+]2[O-]`, under setting [3], the mutagenic call was “active; positive”.
